Measured values from publication PMC8208785, “Therapeutic efficacy of novel memantine nitrate MN‐08 in animal models of Alzheimer’s disease” (Aging Cell, 2021).
Entries after “also recorded” stand apart in the source; their conditions may differ.

Key:
[1] = test system: cerebellar granule neurons (CGNs); assay: MTT cell viability, glutamate-induced excitotoxicity in CGNs; type: cell-based, rat; settings: LY294002 incubated with MN‐08
Procedure: Excessive glutamate‐induced excitotoxicity might cause dysfunctions of cellular pathways, subsequently resulting in synaptic dysfunctions and neuronal loss. To evaluate the neuroprotective effects of MN‐08 against excitotoxicity, cerebellar granule neurons (CGNs) were treated with MN‐08 at the concentrations from 1 to 50 µM or memantine from 1 to 10 μM for 2 h, and then exposed to 100 μM glutamate for 24 h. […] Similarly, in APP/PS1 mice, MN‐08 prevented neuronal loss in the hippocampus by upregulating the expression ratio of Bcl‐2/Bax and downregulating the expression ratio of cleaved Caspase‐3 to Caspase‐3 (Figure S6).
CGNs were prepared from the 8-day-old Sprague–Dawley rats as described in our previous publication (Li et al., 2005). Briefly, animals were anesthetized and sacrificed, and their cerebella were collected. […]
Neurotoxicity was assessed using the tetrazolium salt 3-(4,5-dimethylthiazol-2-yl)-2,5- diphenyltetrazolium bromide dye (MTT) assay as previous publication (Luo et al., 2010). […] Cell viability was evaluated by observing colorimetric changes using a CLARIOstar plus Microplate Reader (BMG Labtech, Ortenberg, Germany) at a test wavelength of 570 nm with 655 nm as a reference wavelength. Data were expressed as a percentage of control cultures.

[2] = test system: ERK and PI3K/Akt/GSK3β pathway; assay: Western blotting of p-ERK, p-Akt, p-GSK3β and Bcl-2 in glutamate-challenged CGNs; type: cell-based, rat; settings: LY294002 incubated with MN‐08
Description: To further characterize the neuroprotection of MN‐08, the level of the key signaling molecules, such as ERK, Akt, and GSK3β, was examined by Western blotting assay. […] Moreover, pre‐treatment with MN‐08 reversed expression of both p‐Akt and p‐GSK3β with the challenge of glutamate. Akt is an important downstream member of PI3K. To further confirm whether the PI3K/Akt pathway was associated with the neuroprotection of MN‐08 against glutamate‐induced excitotoxicity, specific PI3K inhibitor LY294002 was applied and incubated with MN‐08. […] Taken together, MN‐08 might protect against glutamate‐induce cytotoxicity by reversing the dysregulations of ERK pathway and PI3K/Akt/GSK3β pathway.
Western blotting analysis was performed as previously described with minor modifications (Huang, Li, & Nan, 2017). Proteins were extracted from hippocampal tissue and their concentrations determined by the BCA protein assay kit (Fdbio science, Hangzhou, China). The protein (20 μg) was separated on a 12% SDS-PAGE gel and then transferred to PVDF membranes. The membranes were blocked using 5 % nonfat dry milk for 2 h. The protein blots were incubated with the corresponding primary antibodies against p-Akt (#4060, 1:1000, Cell Signaling Technology), Akt (#4685, 1:1000, Cell Signaling Technology), BACE1 (#5606, 1:1000, Cell Signaling Technology), PS1 (#5643, 1:1000, Cell Signaling Technology), p-GSK3β (#5558, 1:1000, Cell Signaling Technology), GSK3β (#12456, 1:1000, Cell Signaling Technology), Bcl-2 (#3498, 1:1000, Cell Signaling Technology), Bax (#5023, 1:1000, Cell Signaling Technology), Cleaved caspase-3 (#9661, 1:1000, Cell Signaling Technology), Caspase-3 (#9662, 1:1000, Cell Signaling Technology), ADAM10 (#14194, 1:1000, Cell Signaling Technology), APP (#ab241592, 1:1000, Abcam), sAPPα (#ab126723, 1:1000, Abcam), NEP (#ab216341, 1:1000, Abcam), Synapsin I (#ab64581, 1:1000, Abcam), Synapsin II (#ab76494, 1:1000, Abcam), NR2A (#ab124913, 1:2000, Abcam), PSD95 (#ab18258, 1:1000, Abcam), Synaptophysin (#ab32127, 1:1000, Abcam), IDE (#ab133561, 1:1000, Abcam), Drebin (#ab178408, 1:1000, Abcam) and Tau-5 (#ab80579, 1:2000, Abcam) overnight at 4°C. After washing 3 times, the membranes were incubated with the respective HRP-conjugated secondary antibody. ECL Western blotting Detection Reagents (Fdbio science, Hangzhou, China) were used to perform Chemiluminescence detection. Quantitative analysis of protein bands was conducted by the Carestream system (Carestream Health, Inc, USA).
CGNs were prepared from the 8-day-old Sprague–Dawley rats as described in our previous publication (Li et al., 2005). Briefly, animals were anesthetized and sacrificed, and their cerebella were collected. Then, the freshly collected cerebella were rinsed in cold Kreb’s buffer-BSA and digested with 0.025 % trypsin incubated in a 37°C for 15 min. The reaction was stopped, and the single cell suspension was obtained through pipetting up and down the sedimentary tissue. CGNs were seeded in basal modified Eagle’s medium (ThermoFisher Scientific, Waltham, MA, USA) supplemented with 10 % fetal bovine serum, 25 mM KCl, 2 mM glutamine and 100 units/mL penicillin/streptomycin at a density of 1.5×10^6 cells/mL. Cytosine arabinoside (10 μM) was added to inhibit the growth of non-neuronal cells at 24 h after seeding. All experiments were carried out after 8 days in vitro. […]

[3] = test system: 3×Tg‐AD mice; assay: Golgi staining of dendritic spines and Western blotting of synaptic markers in 3×Tg-AD mice; type: in vivo; settings: donepezil 1.3 mg/kg
Procedure: Triple transgenic 3×Tg‐AD mice were acquired from Jackson Laboratory and fostered in the Shenzhen Center for Disease Control and Prevention (Shenzhen, China). Eight‐month‐old 3×Tg‐AD mice were categorized into six groups: (1) 3×Tg‐AD +Vehicle group; (2) 3×Tg‐AD +MN‐08 (3 mg/kg) group; (3) 3×Tg‐AD +MN‐08 (6 mg/kg) group; (4) 3×Tg‐AD +MN‐08 (12 mg/kg) group; (5) 3×Tg‐AD +Memantine (Mem, 5 mg/kg) group; (6) 3×Tg‐AD +Donepezil (Done, 1.3 mg/kg, once daily) group; (7) Eight‐month‐old B6129SF2/J mice as a control group. MN‐08 and memantine were given twice daily (Done, once daily) by gastric gavage for 4 months from 8 months of age.
Golgi staining was used to determine hippocampal dendritic spine density by a Rapid Golgi Stain Kit (FD Neurotechnologies, Columbia, MD, USA) according to the manufacturer’s instructions. The brain was removed after the behavioral tests and incubated with impregnation solution in the dark at room temperature for 1 week. Impregnation solution was replaced with solution A and stored in the dark for 3 days. Brain sections (100 μm thickness) were placed on gelatin-coated microscope slides and then immersed in ddH2O. Solution B, Solution C, 80 % ethanol and xylene were used for 10 min, sequentially. The dendritic spines of hippocampal neurons were analyzed and counted in a blinded manner from six sections per animal by light microscopy (Olympus, Tokyo, Japan).
Western blotting analysis was performed as previously described with minor modifications (Huang, Li, & Nan, 2017). Proteins were extracted from hippocampal tissue and their concentrations determined by the BCA protein assay kit (Fdbio science, Hangzhou, China). The protein (20 μg) was separated on a 12% SDS-PAGE gel and then transferred to PVDF membranes. The membranes were blocked using 5 % nonfat dry milk for 2 h. […] Quantitative analysis of protein bands was conducted by the Carestream system (Carestream Health, Inc, USA).

| Compound | effect of LY294002 on the neuroprotective effects of MN‐08 against glutamate (MTT) [1] | effect of LY294002 on upregulation of p‐Akt and p‐GSK3β by MN‐08 [2] | reduction of dendritic spines (hippocampus CA1, Golgi staining) [3] |
| --- | --- | --- | --- |
| O=c1cc(N2CCOCC2)oc2c(-c3ccccc3)cccc12 [LY294002] | canceled; also recorded: partially abolished | significantly abolished |  |
| COc1cc2c(cc1OC)C(=O)C(CC1CCN(Cc3ccccc3)CC1)C2 (stereo not drawn) [donepezil, reference compound] |  |  | markedly reversed |
